The text below walks through data of US7323447B2, “Hepatitis C virus inhibitors” (Bristol-Myers Squibb Company, priority 2005, dated 2008).

The target of experiment [1] is T1, HCV NS3/4A protease complex (BMS strain) (UniProt P27958).
T1 construct: other: HCV NS3/4A enzyme assay; said of H77 and J4L6S; fused on or other part: Three-lysine solubilising tail at the NS4A C-terminus and a His tag from pET21b (Ni-NTA purification), for the H77 and J4L6S constructs
Nature of the experiment: FRET peptide assay to monitor HCV NS3/4A proteolytic activity, BMS strain. The experiment is classed as biochemical, Hepatitis C virus (genotype 1a). The conditions noted are these: read-out: IC50 Range; HCV NS3/4A enzyme assay; Table 1. The essentials: (§1)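 Recombinant NS3/4A (BMS strain, genotype 1a, >90% pure) cleaving FRET depsipeptide RET S1 (EDANS/DABCYL) at 2 μM; enzyme 2-3 nM (300 pM with 50 μg/ml BSA for sensitive runs). Buffer 50 mM HEPES pH 7.5, 0.15 M NaCl, 0.1% Triton, 15% glycerol, 10 mM βME; fluorescence followed in real time.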

Experiment [2] addresses T2, HCV NS3/4A protease complex (BMS strain) (UniProt P27958, species not given/STRAIN_BMS).
T2 construct: other: BMS strain; said of H77 and J4L6S; These are given only for the H77 and J4L6S constructs
Described as above. The conditions noted are these: read-out: IC50 against the NS3/4A BMS strain in the enzyme assay; BMS strain. The experiment is classed as biochemical, Hepatitis C virus (genotype 1a). The essentials: as §1

pIC50: −log10 of the molar value. Some results are limits rather than exact numbers.

T2 sequence (P27958 1027-1657, change not shown, one chain of several): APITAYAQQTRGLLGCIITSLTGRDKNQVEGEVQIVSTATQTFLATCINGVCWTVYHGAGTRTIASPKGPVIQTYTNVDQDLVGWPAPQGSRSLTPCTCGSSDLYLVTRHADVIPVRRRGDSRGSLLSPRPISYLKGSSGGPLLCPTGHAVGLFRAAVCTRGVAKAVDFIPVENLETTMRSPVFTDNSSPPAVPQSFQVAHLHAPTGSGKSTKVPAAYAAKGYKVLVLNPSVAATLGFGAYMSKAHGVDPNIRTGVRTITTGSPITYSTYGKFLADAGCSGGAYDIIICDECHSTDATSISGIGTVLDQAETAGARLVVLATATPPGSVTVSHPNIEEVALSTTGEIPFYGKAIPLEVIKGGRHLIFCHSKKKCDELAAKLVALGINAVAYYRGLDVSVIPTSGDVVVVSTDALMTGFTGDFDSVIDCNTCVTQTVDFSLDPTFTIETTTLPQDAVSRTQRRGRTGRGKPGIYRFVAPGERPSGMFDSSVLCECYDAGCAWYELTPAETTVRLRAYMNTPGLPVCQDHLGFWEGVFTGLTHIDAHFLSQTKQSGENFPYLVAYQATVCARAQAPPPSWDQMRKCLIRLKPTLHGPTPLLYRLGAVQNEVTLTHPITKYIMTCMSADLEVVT
T1 sequence (P27958 1027-1657, one chain of several): as the sequence (P27958 1027-1657, change not shown, one chain of several) above

As to `C=C[C@@H]1C[C@]1(NC(=O)[C@@H]1C[C@@H](OC(=O)N2Cc3cccc(F)c3C2)CN1C(=O)[C@@H](OC(=O)NC(C)(C)C)C(C)(C)C)C(=O)NS(=O)(=O)C1CC1` [Example 56Compound 56], the pIC50 in experiment [1] is more than 7.00; in experiment [2], 7.00.
